Assay results taken from ChEMBL document CHEMBL5154769, “Discovery of the First-in-Class Agonist-Based SOS1 PROTACs Effective in Human Cancer Cells Harboring Various KRAS Mutations” (J Med Chem, 2022).
The source made the active and inactive calls. The calls are words filed in the database; no cut-off is given here.

Key:
[1] = target: von Hippel-Lindau disease tumor suppressor/Son of sevenless homolog 2 (Homo sapiens) (UniProt P40337+Q07890); experiment: Protac activity at VHL/SOS2 in human NCI-H358 cells assessed as SOS2 mRNA level at 1 uM incubated for 24 to 72 hr by qRT PCR analysis; type: cell-based; settings: time 24-72 hrs
[2] = target: von Hippel-Lindau disease tumor suppressor/Son of sevenless homolog 1 (Homo sapiens, UniProt Q07889+P40337, G12R); experiment: Protac activity at VHL/SOS1 in human CAL-62 cells harboring KRAS G12R mutant assessed as SOS1 protein degradation incubated for 24 hr by Western blot analysis; type: cell-based
[3] = target: Von Hippel-Lindau disease tumor suppressor/Elongin B/Elongin C (Homo sapiens, UniProt P40337); experiment: Binding affinity to VCB E3 ligase (unknown origin) assessed as binary equilibrium dissociation constant by surface plasmon resonance analysis; type: protein-complex assay
[4] = Half life in BALB/c mouse at 10 mg/kg, ip measured after 24 hrs by LC-MS/MS analysis; type: ADME, organism-based; settings: in vivo
[5] = Toxicity in BALB/c nude mouse xenografted with human NCI-H358 cells assessed as effect on body weight at 10 to 20 mg/kg/day, ip for 21 days and measured every 3 day; type: organism-based; settings: in vivo, 504 h, dose 10-20 mg/kg/day, time 21 day
[6] = system: A549; experiment: Antiproliferative activity against human A549 cells harboring KRAS G12S mutant assessed as cell growth inhibition incubated for 7 days by CellTiter-Glo 3D cell viability assay; type: functional, cell-based; settings: A549, 168 h
[7] = target: T1, von Hippel-Lindau disease tumor suppressor/Son of sevenless homolog 1 (Homo sapiens, UniProt Q07889+P40337, G12D); experiment: Protac activity at VHL/SOS1 in human ASPC1 cells harboring KRAS G12D mutant assessed as SOS1 protein degradation incubated for 24 hr by Western blot analysis; type: cell-based
[8] = target: T1, von Hippel-Lindau disease tumor suppressor/Son of sevenless homolog 1; experiment: Protac activity at VHL/SOS1 in human SK-LU-1 cells harboring KRAS G12D mutant assessed as SOS1 protein degradation incubated for 24 hr by Western blot analysis; type: cell-based
[9] = target: von Hippel-Lindau disease tumor suppressor/Son of sevenless homolog 1 (Homo sapiens, UniProt Q07889+P40337); experiment: Protac activity at VHL/SOS1 in human NCI-H358 cells assessed as SOS1 protein degradation incubated for 24 hr by Western blot analysis; type: cell-based
[10] = Cmax in BALB/c mouse at 10 mg/kg, ip measured after 24 hrs by LC-MS/MS analysis; type: ADME, organism-based; set-up: dose 10 mg/kg, time 24 hrs, route ip; settings: in vivo
[11] = system: Mus musculus; experiment: In vivo degradation of SOS1 in BALB/c nude mouse xenografted with human NCI-H358 cells at 20 to 50 mg/kg, IT incubated for 21 days by immunohistochemistry analysis; type: functional, organism-based; settings: dose 20-50 mg/kg, time 21.0 day
[12] = target: von Hippel-Lindau disease tumor suppressor/Son of sevenless homolog 1 (Homo sapiens, UniProt Q07889+P40337, G12V); experiment: Protac activity at VHL/SOS1 in human SW-620 cells harboring KRAS G12V mutant assessed as SOS1 protein degradation incubated for 24 hr by Western blot analysis; type: cell-based
[13] = system: SW-620; experiment: Antiproliferative activity against human SW620 cells harboring KRAS G12V mutant assessed as cell growth inhibition incubated for 7 days by CellTiter-Glo 3D cell viability assay; type: functional, cell-based; settings: SW-620, 168 h

T1 sequence (P40337 whole entry, looked up, stated change not applied): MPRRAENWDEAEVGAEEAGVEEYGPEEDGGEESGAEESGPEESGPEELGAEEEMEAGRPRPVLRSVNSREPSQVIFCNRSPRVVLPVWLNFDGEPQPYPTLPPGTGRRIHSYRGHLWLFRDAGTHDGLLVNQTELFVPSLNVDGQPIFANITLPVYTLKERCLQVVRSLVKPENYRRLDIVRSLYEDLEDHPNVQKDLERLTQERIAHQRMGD
T1 sequence (Q07889 whole entry, looked up, stated change not applied): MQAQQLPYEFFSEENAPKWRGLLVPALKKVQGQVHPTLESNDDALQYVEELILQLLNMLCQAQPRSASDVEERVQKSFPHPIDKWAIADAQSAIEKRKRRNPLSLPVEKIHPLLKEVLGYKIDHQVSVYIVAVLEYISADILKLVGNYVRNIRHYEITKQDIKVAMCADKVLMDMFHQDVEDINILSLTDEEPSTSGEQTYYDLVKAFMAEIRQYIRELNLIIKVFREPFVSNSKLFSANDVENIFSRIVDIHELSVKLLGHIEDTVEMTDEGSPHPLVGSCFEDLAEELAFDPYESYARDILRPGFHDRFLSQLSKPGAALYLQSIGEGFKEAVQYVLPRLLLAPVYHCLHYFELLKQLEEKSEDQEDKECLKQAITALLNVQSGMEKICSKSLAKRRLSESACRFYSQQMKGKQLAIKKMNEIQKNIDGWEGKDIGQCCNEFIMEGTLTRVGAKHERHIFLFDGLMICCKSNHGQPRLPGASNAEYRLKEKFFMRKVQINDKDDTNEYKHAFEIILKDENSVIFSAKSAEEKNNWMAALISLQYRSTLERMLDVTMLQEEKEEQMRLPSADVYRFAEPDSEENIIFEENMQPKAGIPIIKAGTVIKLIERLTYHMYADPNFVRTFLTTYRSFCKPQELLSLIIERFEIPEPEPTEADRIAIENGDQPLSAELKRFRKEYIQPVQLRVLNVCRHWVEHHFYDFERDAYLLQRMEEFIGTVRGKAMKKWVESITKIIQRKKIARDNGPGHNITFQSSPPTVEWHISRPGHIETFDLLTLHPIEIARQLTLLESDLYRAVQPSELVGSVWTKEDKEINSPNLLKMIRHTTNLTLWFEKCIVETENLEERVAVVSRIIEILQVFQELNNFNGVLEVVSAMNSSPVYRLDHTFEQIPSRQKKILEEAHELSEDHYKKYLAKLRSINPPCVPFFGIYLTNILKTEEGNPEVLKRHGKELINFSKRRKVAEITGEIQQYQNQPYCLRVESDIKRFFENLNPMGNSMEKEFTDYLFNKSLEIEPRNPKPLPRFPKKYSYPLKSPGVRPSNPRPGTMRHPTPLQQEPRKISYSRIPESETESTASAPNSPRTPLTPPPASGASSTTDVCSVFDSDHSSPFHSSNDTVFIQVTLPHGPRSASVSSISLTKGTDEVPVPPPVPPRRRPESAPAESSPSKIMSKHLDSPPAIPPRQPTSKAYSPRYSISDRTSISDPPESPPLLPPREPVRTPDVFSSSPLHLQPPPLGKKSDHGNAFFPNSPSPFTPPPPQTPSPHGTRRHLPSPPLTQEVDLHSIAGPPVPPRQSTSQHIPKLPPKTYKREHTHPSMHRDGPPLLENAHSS
Chain of von Hippel-Lindau disease tumor suppressor/Son of sevenless homolog 1 (Homo sapiens, UniProt Q07889+P40337) (Q07889 whole entry): as the sequence (Q07889 whole entry, looked up, stated change not applied) above
Chain of von Hippel-Lindau disease tumor suppressor/Son of sevenless homolog 1 (Homo sapiens, UniProt Q07889+P40337) (P40337 whole entry): as the sequence (P40337 whole entry, looked up, stated change not applied) above
Chain of Von Hippel-Lindau disease tumor suppressor/Elongin B/Elongin C (P40337 whole entry, looked up): as the sequence (P40337 whole entry, looked up, stated change not applied) above
Chain of von Hippel-Lindau disease tumor suppressor/Son of sevenless homolog 1 (Homo sapiens, UniProt Q07889+P40337, G12V) (P40337 whole entry, looked up, stated change not applied): as above
Chain of von Hippel-Lindau disease tumor suppressor/Son of sevenless homolog 1 (Homo sapiens, UniProt Q07889+P40337, G12V) (Q07889 whole entry, looked up, stated change not applied): as the sequence (Q07889 whole entry, looked up, stated change not applied) above

## Cc1cc(Cn2c(N3CC4(CNC4)C3)nc3c(N4CCN(CCCCCCCCC(=O)N[C@H](C(=O)N5C[C@H](O)C[C@H]5C(=O)N[C@@H](C)c5ccc(-c6scnc6C)cc5)C(C)(C)C)CC4)cc(Cl)cc32)cc(C)c1F
[1]
  Activity: Active
[2]
  DC50: 126 nM
[3]
  Kd: 56 nM
[4]
  half-life: 8.64 h
[5]
  Activity: Non-Toxic
[6]
  IC50: 232 nM
[7]
  DC50: 119 nM
[8]
  DC50: 104 nM
[9]
  DC50: 98.4 nM
[10]
  Cmax: 1220 ng/mL
[11]
  Activity: Active
[12]
  DC50: 125 nM
[13]
  IC50: 199 nM
